# Experimental data published in ChEMBL document CHEMBL4419121, “Tetrahydropyridopyrazines modulators of gpr6” (2018).
# Molecular target: T1, G-protein coupled receptor 6 (Homo sapiens, UniProt P46095)
# Test: Modulation activity at GPR6 receptor (unknown origin) expressed in CHO-K1 cells assessed as inhibition of constitutive cAMP activity incubated for 45 mins in presence of 300 uM IBMX by Perkin Elmer Lance HTRF Ultrac-AMP assay
# Assay type: functional, cell-based
# Conditions: not given
# T1 sequence (P46095 whole entry): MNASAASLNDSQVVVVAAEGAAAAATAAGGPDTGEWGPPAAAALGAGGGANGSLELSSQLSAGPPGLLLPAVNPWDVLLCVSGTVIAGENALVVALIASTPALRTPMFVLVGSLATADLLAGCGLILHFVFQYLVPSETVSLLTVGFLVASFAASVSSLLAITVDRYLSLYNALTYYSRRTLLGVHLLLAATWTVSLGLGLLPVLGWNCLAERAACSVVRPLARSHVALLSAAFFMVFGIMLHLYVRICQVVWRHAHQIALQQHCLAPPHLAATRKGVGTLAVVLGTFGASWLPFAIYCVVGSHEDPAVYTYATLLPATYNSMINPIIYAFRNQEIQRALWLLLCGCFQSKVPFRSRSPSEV
row,SMILES,IC50
1,[2H]C([2H])([2H])C(=O)N1CCc2nc(N3CCC(Oc4ccc(F)cc4F)CC3)c(NC(C)C)nc2C1,33.7 nM
2,COC[C@H](C)Nc1nc2c(nc1N1CCC(Oc3ccc(F)cc3F)CC1)CCN(C(C)=O)C2,107 nM
3,COC[C@@H](C)Nc1nc2c(nc1N1CCC(Oc3ccc(F)cc3F)CC1)CCN(C(C)=O)C2,> 1000 nM

# Same assay, conditions: cho-k1
row,SMILES,IC50
1,CC(C)Nc1nc2c(nc1N1CCC([C@H](F)c3ccc(F)cc3F)CC1)CCN(C=O)C2,11.4 nM
2,CC[C@H](C)Nc1nc2c(nc1N1CCC(Oc3ccc(F)cc3F)CC1)CCN(C(C)=O)C2,62 nM
3,CC(C)Nc1nc2c(nc1N1CCN(Cc3ccc(F)cc3F)CC1)CCN(C(=O)C(C)C)C2,29 nM
4,CC(=O)N1CCc2nc(N3CCC(Oc4ccc(F)cc4F)CC3)c(N[C@H]3C[C@H](O)C3)nc2C1,78 nM
5,CC(C)Nc1nc2c(nc1N1CCC(Oc3ccc(F)cc3F)CC1)CN(C(=O)C1CC1)CC2,211 nM
6,CC(C)Nc1nc2c(nc1N1CCC(Oc3ccc(F)cc3F)CC1)CN(CC(F)F)CC2,200 nM
7,CC(C)Nc1nc2c(nc1N1CCC(Oc3ccc(F)cc3F)CC1)CN(C=O)CC2,43.2 nM
8,CS(=O)(=O)N1CCc2nc(NCC(F)F)c(N3CCC(Oc4ccc(F)cc4F)CC3)nc2C1,163 nM
9,COc1ccc(OC2CCN(c3nc4c(nc3NC(C)C)CN(C)CC4)CC2)c(F)c1,140 nM
10,CC(=O)N1CCc2nc(N3CCN(Cc4ccc(C#N)cc4F)CC3)c(NC(C)C)nc2C1,363 nM
11,CC(=O)N1CCc2nc(N3CCC(Oc4ccc(F)cc4F)CC3)c(NC(C)C)nc2C1C (stereo not given),73.2 nM
12,CC(=O)N1CCc2nc(N3CCC(Oc4ccc(F)cc4F)CC3)c(N[C@H]3C[C@@H](O)C3)nc2C1,61.5 nM
13,COc1ccc(S(=O)(=O)C2CCN(c3nc4c(nc3NC(C)C)CCN(C(C)=O)C4)CC2)c(F)c1,200 nM
14,CC(=O)N1CCc2nc(NC(C)C)c(N3CCC(S(=O)(=O)c4ccccc4F)CC3)nc2C1,247 nM
15,CC(C)Nc1nc2c(nc1N1CCC(Oc3ccc(F)cc3F)CC1)CN(C)CC2,59.5 nM
16,CC(=O)N1CCc2nc(N3CCN(Cc4ccc(F)cc4F)CC3)c(N[C@H]3CCOC3)nc2C1,97.8 nM
17,CC(=O)O[C@H]1C[C@@H](Nc2nc3c(nc2N2CCC(Oc4ccc(F)cc4F)CC2)CCN(C(C)=O)C3)C1,114 nM
18,CC(C)Nc1nc2c(nc1N1CCC(Oc3ccc(F)cc3F)CC1)CCN(S(C)(=O)=O)C2,61.8 nM
19,CC(C)Nc1nc2c(nc1N1CCC(Oc3ccc(F)cc3F)CC1)C(C)N(C(=O)N(C)C)CC2 (stereo not given),179 nM
20,CC(C)Nc1nc2c(nc1N1CCC(Oc3ccc(F)cc3F)CC1)CCN(C(=O)C(F)F)C2,129 nM
21,CC(=O)N1CCc2nc(N3CCN(Cc4ccc(F)cc4F)CC3)c(N[C@H]3C[C@@H](O)C3)nc2C1,122 nM
22,CC(C)Nc1nc2c(nc1N1CCC(Oc3ccc(F)cc3F)CC1)CN(S(C)(=O)=O)CC2,95.6 nM

row,SMILES,IC50
1,CC(=O)N1CCc2nc(NC(C)C)c(N3CCC(S(=O)(=O)c4ccc(F)cc4)CC3)nc2C1,188 nM
2,O=C(C(F)F)N1CCc2nc(NCC(F)F)c(N3CCC(Oc4ccc(F)cc4F)CC3)nc2C1,111 nM
3,CC(C)Nc1nc2c(nc1N1CCC(C(F)c3ccc(F)cc3F)CC1)CN(C)CC2 (stereo not given),17.1 nM
4,CC(C)Nc1nc2c(nc1N1CCC(Oc3ccc(F)cc3F)CC1)CCN(C(=O)C(F)F)C2C (stereo not given),95 nM
5,COC(=O)N1CCc2nc(N3CCC(Oc4ccc(F)cc4F)CC3)c(NC(C)C)nc2C1,130 nM
6,CC(C)Nc1nc2c(nc1N1CCC(C(F)c3ccc(F)cc3F)CC1)CCN(C)C2 (stereo not given),30.3 nM
7,CC1c2nc(N3CCC(Oc4ccc(F)cc4F)CC3)c(NCC(F)F)nc2CCN1C(=O)N(C)C (stereo not given),93.5 nM
8,CC(C)Nc1nc2c(nc1N1CCC(Oc3ccc(F)cc3F)CC1)CCN(C(=O)C1CC1)C2,340 nM
9,CC(=O)N1CCc2nc(N3CCN(Cc4ccc(F)cc4F)CC3)c(NC(C)C)nc2C1,27 nM
10,CC(C)Nc1nc2c(nc1N1CCC(Oc3ccc(F)cc3F)CC1)CCN(C(=O)N(C)C)C2C (stereo not given),110 nM
11,COCC(=O)N1CCc2nc(NCC(F)F)c(N3CCC(Oc4ccc(F)cc4F)CC3)nc2C1,79.5 nM
12,CC(C)Nc1nc2c(nc1N1CCC(Oc3ccc(F)cc3F)CC1)CCN(C)C2,90.1 nM
13,CCC(=O)N1CCc2nc(N3CCN(Cc4ccc(F)cc4F)CC3)c(N[C@H]3CCOC3)nc2C1,59.1 nM
14,CC(C)Nc1nc2c(nc1N1CCN(Cc3ccc(F)cc3F)CC1)CCN(S(C)(=O)=O)C2,27.9 nM
15,CC1c2nc(N3CCC(Oc4ccc(F)cc4F)CC3)c(NCC(F)F)nc2CCN1C(=O)C(F)F (stereo not given),193 nM
16,COCC(=O)N1CCc2nc(N3CCC(Oc4ccc(F)cc4F)CC3)c(NC(C)C)nc2C1,71.5 nM
17,CC(=O)N1CCc2nc(N3CCC(Oc4ccc(F)cc4F)CC3)c(NC3CC(F)(F)C3)nc2C1,35.9 nM
18,CC(=O)N1CCc2nc(N3CCC(Oc4ccc(F)cc4F)CC3)c(NCC(F)F)nc2C1,49.7 nM
19,CC(C)Nc1nc2c(nc1N1CCC(Oc3ccc(F)cc3F)CC1)C(C)N(C(=O)C(F)F)CC2 (stereo not given),116 nM
20,CC(C)Nc1nc2c(nc1N1CCC(Oc3ccc(F)cc3F)CC1)CCN(CCF)C2,74.8 nM
21,CC(=O)N1CCc2nc(N3CCC(Oc4ccc(F)cc4F)CC3)c(NC3CCC3)nc2C1,55 nM
22,COc1ccc(OC2CCN(c3nc4c(nc3NC(C)C)CCN(C(C)=O)C4)CC2)c(F)c1,62.5 nM

row,SMILES,IC50
1,CCC(=O)N1CCc2nc(N3CCC(Oc4ccc(F)cc4F)CC3)c(NC(C)C)nc2C1,27.6 nM
2,CC(=O)N1CCc2nc(N3CCC([C@H](F)c4ccc(F)cc4F)CC3)c(NC(C)C)nc2C1,27.4 nM
3,CC(C)Nc1nc2c(nc1N1CCC(Oc3ccc(F)cc3F)CC1)CCN(S(C)(=O)=O)C2C (stereo not given),59.3 nM
4,COc1ccc(OC2CCN(c3nc4c(nc3NC(C)C)CN(C(C)=O)CC4)CC2)c(F)c1,74.1 nM
5,COC(=O)N1CCc2nc(NC(C)C)c(N3CCC(Oc4ccc(F)cc4F)CC3)nc2C1,132 nM
6,CC(C)Nc1nc2c(nc1N1CCC(Oc3ccc(F)cc3F)CC1)CCN(C(=O)[C@@H]1CCCN1C)C2,78.1 nM
7,CC(=O)N1CCc2nc(N3CCN(Cc4ccc(F)cc4F)CC3)c(NC3CCC3)nc2C1,43.7 nM
8,CC(=O)O[C@H]1C[C@H](Nc2nc3c(nc2N2CCC(Oc4ccc(F)cc4F)CC2)CCN(C(C)=O)C3)C1,604 nM
9,CS(=O)(=O)N1CCc2nc(N3CCC(Oc4ccc(F)cc4F)CC3)c(NC3CCC3)nc2C1,49.3 nM
10,CCC(=O)N1CCc2nc(N3CCN(Cc4ccc(F)cc4F)CC3)c(NC(C)C)nc2C1,30.9 nM
11,CC1c2nc(NCC(F)F)c(N3CCC(Oc4ccc(F)cc4F)CC3)nc2CCN1C(=O)C(F)F (stereo not given),212 nM
12,CC(=O)N1CCc2nc(N3CCN(Cc4ccc(F)cc4F)CC3)c(N[C@H]3C[C@H](F)C3)nc2C1,186 nM
13,CCC(=O)N1CCc2nc(N3CCC(Oc4ccc(F)cc4F)CC3)c(N[C@H]3CCOC3)nc2C1,39.2 nM
14,CC(=O)N1CCc2nc(NC(C)C)c(N3CCC(S(=O)(=O)c4cccc(F)c4)CC3)nc2C1,250 nM
15,CC(C)Nc1nc2c(nc1N1CCC(Oc3ccc(F)cc3F)CC1)CN(CCF)CC2,69.2 nM
16,CC(=O)O[C@H]1C[C@@H](Nc2nc3c(nc2N2CCN(Cc4ccc(F)cc4F)CC2)CCN(C(C)=O)C3)C1,220 nM
17,COc1cccc(S(=O)(=O)C2CCN(c3nc4c(nc3NC(C)C)CCN(C(C)=O)C4)CC2)c1,342 nM
18,CC[C@@H](C)Nc1nc2c(nc1N1CCC(Oc3ccc(F)cc3F)CC1)CCN(C(C)=O)C2,319 nM
19,CC(=O)N1CCc2nc(N3CCN(Cc4ccc(F)cc4F)CC3)c(N[C@@H]3CCOC3)nc2C1,63.2 nM
20,CC(C)Nc1nc2c(nc1N1CCC([C@@H](F)c3ccc(F)cc3F)CC1)CCN(C=O)C2,23.6 nM
21,CC(=O)N1CCc2nc(N3CCC([C@@H](F)c4ccc(F)cc4F)CC3)c(NC(C)C)nc2C1,37.8 nM

# Molecular target: T1, G-protein coupled receptor 6
# Test: Modulation activity at GPR6 receptor (unknown origin) expressed in CHO-K1 cells assessed as inhibition of constitutive cAMP activity incubated for 45 mins by Perkin Elmer Lance HTRF Ultrac-AMP assay
# Assay type: functional, cell-based
# Conditions: not given
row,SMILES,IC50
1,COc1ccc(OC2CCN(c3nc4c(nc3NC3CCC3)CCN(C(C)=O)C4)CC2)c(F)c1,12 nM
2,CC(C)Nc1nc2c(nc1N1CCC(Oc3ccc(F)cc3F)CC1)CCN(C(=O)N(C)C)C2,10.4 nM
3,CC(=O)N1CCc2nc(NC(C)C)c(N3CCC(C(=O)c4cc(Cl)ccc4F)CC3)nc2C1,9.8 nM
4,CC(C)Nc1nc2c(nc1N1CCC(C(F)c3ccc(F)cc3F)CC1)CN(C(=O)N(C)C)CC2 (stereo not given),23.7 nM
5,CC(C)Nc1nc2c(nc1N1CCC(C(F)c3ccc(F)cc3F)CC1)CCN(C(=O)N(C)C)C2 (stereo not given),19.7 nM
6,CC(C)Nc1nc2c(nc1N1CCC(C(=O)c3cc(Cl)ccc3F)CC1)CCN(C(=O)N(C)C)C2,32.7 nM
7,CC(=O)N1CCc2nc(NCC(F)F)c(N3CCC(Oc4ccc(F)cc4F)CC3)nc2C1,11.5 nM
8,CC(C)Nc1nc2c(nc1N1CCC(C(=O)c3cc(Cl)ccc3F)CC1)CN(C(=O)N(C)C)CC2,24.9 nM
9,CC(C)Nc1nc2c(nc1N1CCC(C(=O)c3cc(Cl)ccc3F)CC1)CN(C)CC2,8.8 nM
10,CC(=O)N1CCc2nc(N3CCC(C(F)c4ccc(F)cc4F)CC3)c(NC(C)C)nc2C1 (stereo not given),13.4 nM
11,COc1ccc(OC2CCN(c3nc4c(nc3NC(C)C)CCN(C(=O)N(C)C)C4)CC2)c(F)c1,16.6 nM
12,CC(C)Nc1nc2c(nc1N1CCC(Oc3ccc(F)cc3F)CC1)CN(C(=O)N(C)C)CC2,13.8 nM
